The values that follow come from patent US20140080810A1 (Exelixis, Inc., priority 2010, published 2014).

In experiment [1] the test system is pAKT (T308) in MCF-7 cells (PI3Kα E545K). Put plainly: pAKT (T308) ELISA Assay. The format is cell-based. The following applies: Homo sapiens, MCF7. As for the experimental part: MCF-7 cells (ATCC) cells were seeded at 24000 cells per well in 96-well plates (Corning, 3904) in DMEM (Cellgro) containing 10% FBS (Cellgro), 1% NEAA (Cellgro) and 1% penicillin-streptomycin (Cellgro). Cells were incubated at 37° C., 5% CO2 for 48 h, and the growth medium was replaced with serum-free DMEM or in medium containing 0.4% BSA. Serial dilutions of the test Compound in 0.3% DMSO (vehicle) were added to the cells and incubated for 3 h. At the end of the incubation period, cells were stimulated for 10 minutes by the addition of L-IGF (Sigma, I-1271) at a final concentration of 100 ng/ml. Afterwards, media was discarded from cell plates and 110 μl/well of cold lysis buffer (see table below) were added. Cell plates were incubated on ice and then put on shaker in 4° C. cold room for 1 h. Two capture plates (Thermo Scientific, Reacti-bind plate, 15042) were prepared for each cell plate by pre-coating with capture Akt antibody from the two sandwich ELISA antibody pairs used (Cell Signaling Technology 7142 and 7144). The Akt capture antibodies were diluted 1:100 in PBS and 100 μl of diluted capture antibody was added per well. Capture plates were incubated at 4 C overnight. Prior to use, capture plates were washed 3 times in TBS containing 0.1% Tween20 (Bio-Rad, 170-6351) (TBST) and blocked in blocking buffer (Thermo Scientific, Starting Block T20, 37543) for 1-2 h at room temperature. After 1 h of cell lysis, 85 μl of cell lysate/well was transferred to the capture plate for detection of pAkt(T308). 15 μl of cell lysate was transferred from same well to the second capture plate for detection of total Akt1. After incubation overnight at 4° C., plates were washed 3 times with 200 μL TBST. Primary antibodies, diluted 1:100 in blocking buffer, were added to the corresponding capture plates for pAkt(T308) (Cell Signaling Technology, 7144) and total Akt1 (Cell Signaling Technology, 7142) detection and incubated at room temperature for 1 h. Plates were washed 3 times with 200 μL of TBST. Goat anti-mouse secondary antibody (Cell Signaling Technology, 7076) conjugated to HRP was diluted 1:1000 in blocking buffer and 100 μl were added to each well and incubated for 30 minutes at room temperature. Plates were then washed 3 times with 200 μL of TBST. 100 μL of SuperSignal ELISA Femto stable peroxidase solution (Thermo Scientific, 37075) was added to each well. After 1 minute incubation, chemiluminescence was read on a Wallac Victor2 1420 multilabel counter. IC50 values were determined based on the ratio of pAkt(T308) to total Akt1 signal for Compound treated wells, normalized to the DMSO-treated control wells.
In another embodiment, the pAKT ELISA Assay was performed by seeding cells onto 96-well plates (Corning, 3904) in their respective growth media at the densities listed in Table 5. Cells were incubated at 37° C., 5% CO2 for 48 h (except MDA-MB-453 cells which were cultured in the absence of CO2). Compounds were serially diluted in DMSO and subsequently diluted in serum-free DMEM. Test compounds were added to cells in serum-free DMEM at a final concentration of 0.3% DMSO and incubated for 3 h. Cells were lysed with 130 μL of ice-cold RIPA lysis buffer (50 mM Tris-HCl, pH 7.5; 0.5% sodium deoxycholic acid; 1% Triton X-100; 0.1% SDS; 150 mM NaCl) with protease and phosphatase inhibitors (1 mM EDTA, 1 mM NaF, 20 mM β-glycerophosphate, 1 mM Na-orthovanadate, Complete-Mini EDTA-free, Roche, 11836170001, and Phosphatase Inhibitor Cocktail I, Sigma, P2850), directly in 96-well plates. Cells were lysed on ice for 60-120 min at 4° C. The supernatants were added directly to capture ELISA plates previously pre-coated with rabbit anti-AKT capture antibody. ELISA assays for pAKT(T308) and total AKT were performed with the pAKT(T308) ELISA kit (Cell Signaling Technology, 7144) and AKT1 ELISA kit (Cell Signaling Technology, 7142). For the pAKT(T308) ELISA, 85 μL of cell lysate was added to each well. […]
Background: In an ELISA, binding on a coated surface is turned into a signal by an enzyme label.

The next experiment deals with PI3Kα (Homo sapiens, UniProt P42336). The experiment in a line: PI3K Biochemical Assay (ATP consumed, luciferase-luciferin chemiluminescence). Conditions: for IC50: PIP2 used as substrate, read-out: PI3K biochemical IC50 values PI3Kα; for specificity among PI3Kα, PI3Kβ, PI3Kδ, PI3Kγ and mTOR: summary of Table 3. On the procedure:
PI3Kα activity is measured as the percent of ATP consumed following the kinase reaction using luciferase-luciferin-coupled chemiluminescence. Reactions were conducted in 384-well white, medium binding microtiter plates (Greiner). Kinase reactions were initiated by combining test compounds, ATP, substrate (PIP2), and kinase in a 20 μL volume in a buffer solution. The standard PI3Kalpha assay buffer is composed 50 mM Tris, pH 7.5, 1 mM EGTA, 10 mM MgCl2, 1 mM DTT and 0.03% CHAPS. The standard assay concentrations for enzyme, ATP, and substrate are 1.5 nM, 1 μM, and 10 μM, respectively. The reaction mixture was incubated at ambient temperature for approximately 2 h. Following the kinase reaction, a 10 μL aliquot of luciferase-luciferin mix (Promega Kinase-Glo) was added and the chemiluminescence signal measured using a Victor2 plate reader (Perkin Elmer). Total ATP consumption was limited to 40-60% and IC50 values of control compounds correlate well with literature references. Substituting PI3Kα with PI3Kβ, PI3Kγ, or PI3Kδ, the inhibitory activity of the compounds for the other isoforms of I3K were measured.

Setting [2] is: IGF1 stimulation, read-out: pAKT (T308) IC50 MCF-7 PI3Kα E545K IGF1.
Setting [3] is: Table 7, stimulation line of the head prints PI3Kα, read-out: Cellular pAKT (T308) IC50 PI3KαE545K MCF-7.

Read-outs that look alike come from different tables or passages of the source.

Chain of PI3Kα (P42336 whole entry): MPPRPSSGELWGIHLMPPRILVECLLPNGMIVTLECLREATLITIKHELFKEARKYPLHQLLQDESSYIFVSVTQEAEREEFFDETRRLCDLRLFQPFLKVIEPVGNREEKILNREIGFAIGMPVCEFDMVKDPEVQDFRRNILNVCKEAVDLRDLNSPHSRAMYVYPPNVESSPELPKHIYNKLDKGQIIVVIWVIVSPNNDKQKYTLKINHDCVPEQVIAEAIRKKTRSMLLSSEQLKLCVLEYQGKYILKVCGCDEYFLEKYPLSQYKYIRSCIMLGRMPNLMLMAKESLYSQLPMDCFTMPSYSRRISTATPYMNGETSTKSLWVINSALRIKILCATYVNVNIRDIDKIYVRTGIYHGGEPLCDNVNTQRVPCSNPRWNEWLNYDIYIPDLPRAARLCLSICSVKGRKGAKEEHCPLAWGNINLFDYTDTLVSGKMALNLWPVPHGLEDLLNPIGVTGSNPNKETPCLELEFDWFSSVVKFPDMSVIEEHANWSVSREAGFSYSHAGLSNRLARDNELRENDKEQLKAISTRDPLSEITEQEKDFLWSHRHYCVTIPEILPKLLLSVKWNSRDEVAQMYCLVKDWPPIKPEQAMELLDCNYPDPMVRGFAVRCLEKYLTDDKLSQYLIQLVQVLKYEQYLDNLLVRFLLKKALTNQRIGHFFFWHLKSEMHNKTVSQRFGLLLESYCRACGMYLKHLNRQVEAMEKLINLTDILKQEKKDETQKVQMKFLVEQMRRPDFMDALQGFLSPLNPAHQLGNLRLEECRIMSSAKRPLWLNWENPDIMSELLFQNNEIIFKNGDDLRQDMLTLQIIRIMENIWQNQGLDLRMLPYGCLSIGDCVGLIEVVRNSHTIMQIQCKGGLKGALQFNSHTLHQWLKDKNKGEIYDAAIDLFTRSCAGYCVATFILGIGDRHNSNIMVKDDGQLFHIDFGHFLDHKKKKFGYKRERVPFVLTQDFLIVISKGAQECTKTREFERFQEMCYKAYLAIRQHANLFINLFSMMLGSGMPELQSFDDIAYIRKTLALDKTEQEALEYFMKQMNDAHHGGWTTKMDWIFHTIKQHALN
Chain of PI3Kα (P27986 whole entry partner): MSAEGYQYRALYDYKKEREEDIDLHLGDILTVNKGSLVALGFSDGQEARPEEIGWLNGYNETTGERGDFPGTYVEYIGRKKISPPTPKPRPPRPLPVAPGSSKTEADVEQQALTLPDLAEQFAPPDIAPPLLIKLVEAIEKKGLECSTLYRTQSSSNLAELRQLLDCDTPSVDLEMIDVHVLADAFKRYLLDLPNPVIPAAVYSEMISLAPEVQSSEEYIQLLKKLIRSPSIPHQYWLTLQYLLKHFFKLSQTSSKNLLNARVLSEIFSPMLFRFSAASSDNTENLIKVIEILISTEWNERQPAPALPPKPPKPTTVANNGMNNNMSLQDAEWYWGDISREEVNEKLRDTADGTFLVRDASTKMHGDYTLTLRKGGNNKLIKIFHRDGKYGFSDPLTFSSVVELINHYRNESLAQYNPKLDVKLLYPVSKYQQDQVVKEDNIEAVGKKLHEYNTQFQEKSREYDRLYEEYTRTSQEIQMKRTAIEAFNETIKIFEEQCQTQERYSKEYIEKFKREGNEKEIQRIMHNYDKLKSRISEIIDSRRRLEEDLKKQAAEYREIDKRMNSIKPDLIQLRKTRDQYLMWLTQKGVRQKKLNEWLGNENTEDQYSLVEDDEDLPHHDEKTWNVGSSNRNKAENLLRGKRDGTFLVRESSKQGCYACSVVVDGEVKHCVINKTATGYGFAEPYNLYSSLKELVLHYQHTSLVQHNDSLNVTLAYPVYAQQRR

A word on the IC50: it is the point on the concentration scale where inhibition reaches its midpoint. As to `Cc1nc2ncc(-c3ccc4c(c3)CN(c3nc(CN(C)C)nc5c3CC(C)(C)CC5)CCO4)cc2[nH]1` [Compound 693], the IC50 in experiment [1] (setting [2]) amounted to 120 nM; in experiment [1] (setting [3]) it was 120 nM; on PI3Kα, 2 nM.
Take `Cc1nc2cc(-c3ccc4c(c3)CN(c3nc(CN(C)C)nc(C)c3C(C)C)CCO4)cnc2[nH]1` [Compound 694]: the figures for the IC50 (in experiment [1] (setting [2]); in experiment [1] (setting [3]); at PI3Kα) were 135 nM, 135 nM and 4 nM, respectively.
On to `COc1ccc2c(N3CCOc4ccc(-c5cnc6nc(C)[nH]c6c5)cc4C3)nc(CN(C)C)nc2c1` [Compound 696], for which the values for the IC50 (in experiment [1] (setting [2]); in experiment [1] (setting [3]); at PI3Kα) were 1650 nM, 1650 nM and 3 nM, respectively. Moreover, the “specificity among PI3Kα, PI3Kβ, PI3Kδ, PI3Kγ and mTOR” value (from here on “specificity among PI3Kα, PI3Kβ, PI3Kδ”) at PI3Kα is on record as “specific for PI3Kα isoforms”.
With `CCNc1nc2ccc(-c3ccc4c(c3)CN(c3ccnc5cc(F)ccc35)CCO4)cc2[nH]1` [Compound 698], the IC50 in experiment [1] (setting [2]) is 2240 nM; in experiment [1] (setting [3]), 2240 nM; at PI3Kα, 3 nM. The “specificity among PI3Kα, PI3Kβ, PI3Kδ” value on PI3Kα is “specific for PI3Kα isoforms”.
For `CCNc1nc2ccc(-c3ccc4c(c3)CN(c3ncnc(NCC)c3C)CCO4)cc2[nH]1` [Compound 699], the values for the IC50 (in experiment [1] (setting [2]); in experiment [1] (setting [3]); on PI3Kα) were 2400 nM, 2400 nM and 6 nM, respectively. Further, the “specificity among PI3Kα, PI3Kβ, PI3Kδ” value at PI3Kα is “specific for PI3Kα isoforms”.
